The text below walks through data of ChEMBL document CHEMBL5154766, “Synthesis, bioevaluation and molecular dynamics of pyrrolo-pyridine benzamide derivatives as potential antitumor agents in vitro and in vivo” (Eur J Med Chem, 2022).

pIC50: −log10 of the molar value.

The first test relates to MCF7. Briefly: Antiproliferative activity against human MCF7 cells expressing c-Met after 48 hrs by MTT assay. Type of test: functional, cell-based. Conditions: MCF7, 48 h. For orientation: Formazan colour is commonly taken as a measure of viable cells.
In general, pIC50 refers to −log10 of the IC50, conventionally taken in molar units. As for `O=C(Nc1ccc(Oc2ccnc3[nH]ccc23)cc1)c1cn(-c2ccccc2)c2ncccc2c1=O`, the pIC50 was 4.33.
For `Cn1ccc2c(Oc3ccc(NC(=O)c4cn(-c5ccccc5)c5ncccc5c4=O)cc3)ccnc21`, the pIC50 was 4.88.
The compound `Cn1ccc2c(Oc3ccc(NC(=O)c4cn(-c5ccc(Br)cc5)c5ncccc5c4=O)cc3F)ccnc21` gave a negative-log IC50 (pIC50) of 5.26.
The compound `O=C(Nc1ccc(Oc2ccnc3[nH]ccc23)c(F)c1)c1cn(-c2ccc(C(F)(F)F)cc2Cl)c2ncccc2c1=O` gave a negative logarithm of the IC50 (pIC50) of 4.89.
Compound `O=C(Nc1ccc(Oc2ccnc3[nH]ccc23)c(F)c1)c1cn(-c2ccc(F)cc2)c2ncccc2c1=O` showed a pIC50 of 5.15.
`COc1ccc(-n2cc(C(=O)Nc3ccc(Oc4ccnc5[nH]ccc45)c(F)c3)c(=O)c3cccnc32)cc1`: the pIC50 was 5.93.
As to `O=C(Nc1ccc(Oc2ccnc3[nH]ccc23)cc1)c1cn(-c2ccc(F)c(Cl)c2)c2ncccc2c1=O`, the pIC50 was 5.70.

For another test, the system named is HeLa. Briefly: Antiproliferative activity against human HeLa cells expressing c-Met after 48 hrs by MTT assay. Type of test: functional, cell-based.
Details: not given
Regarding `O=C(Nc1ccc(Oc2ccnc3[nH]ccc23)cc1)c1cn(-c2ccccc2)c2ncccc2c1=O`, the pIC50 was 4.10.
In turn, `Cn1ccc2c(Oc3ccc(NC(=O)c4cn(-c5ccccc5)c5ncccc5c4=O)cc3)ccnc21` showed a pIC50 of 4.11.
Still for that read-out and setting: as for `O=C(Nc1ccc(Oc2ccnc3[nH]ccc23)c(F)c1)c1cn(-c2ccc(C(F)(F)F)cc2Cl)c2ncccc2c1=O`, the figure is 4.56; as for `O=C(Nc1ccc(Oc2ccnc3[nH]ccc23)c(F)c1)c1cn(-c2ccc(F)cc2)c2ncccc2c1=O`, 4.83.
Consider `COc1ccc(-n2cc(C(=O)Nc3ccc(Oc4ccnc5[nH]ccc45)c(F)c3)c(=O)c3cccnc32)cc1`, for which the pIC50 was 4.70.
The same measure, in the same setting: as for `O=C(Nc1ccc(Oc2ccnc3[nH]ccc23)cc1)c1cn(-c2ccc(F)c(Cl)c2)c2ncccc2c1=O`, the figure is 4.85.

A further test has as its system A549. Briefly: Antiproliferative activity against human A549 cells expressing c-Met after 48 hrs by MTT assay. The note with it: A549, 48 h. Type of test: functional, cell-based.
Compound `O=C(Nc1ccc(Oc2ccnc3[nH]ccc23)cc1)c1cn(-c2ccccc2)c2ncccc2c1=O` had a pIC50 of 4.74.
For `Cn1ccc2c(Oc3ccc(NC(=O)c4cn(-c5ccccc5)c5ncccc5c4=O)cc3)ccnc21`, the pIC50 was 4.65.
As to `Cn1ccc2c(Oc3ccc(NC(=O)c4cn(-c5ccc(Br)cc5)c5ncccc5c4=O)cc3F)ccnc21`, the pIC50 is 4.99.
In the case of `O=C(Nc1ccc(Oc2ccnc3[nH]ccc23)c(F)c1)c1cn(-c2ccc(C(F)(F)F)cc2Cl)c2ncccc2c1=O`, the pIC50 is 5.04.
The compound `O=C(Nc1ccc(Oc2ccnc3[nH]ccc23)c(F)c1)c1cn(-c2ccc(F)cc2)c2ncccc2c1=O` showed a pIC50 of 5.19.
With `COc1ccc(-n2cc(C(=O)Nc3ccc(Oc4ccnc5[nH]ccc45)c(F)c3)c(=O)c3cccnc32)cc1`, the pIC50 was 5.14.
`O=C(Nc1ccc(Oc2ccnc3[nH]ccc23)cc1)c1cn(-c2ccc(F)c(Cl)c2)c2ncccc2c1=O` showed a negative logarithm of the IC50 (pIC50) of 4.91.
